Measured values as given in patent publication US20260027116A1, “Methods of Treating Chronic Graft-Versus-Host Disease Following Allogeneic Hematopoietic Stem Cell Transplantation” (Kadmon Corporation, LLC, priority 2022, published 2026).

Tested on: patients with cGVHD
Details: Cohort 3 400 mg QD

## CC(C)NC(=O)COc1cccc(-c2nc(Nc3ccc4[nH]ncc4c3)c3ccccc3n2)c1 [Belumosudil, 2-{3-[4-(1H-indazol-5-ylamino)-2-quinazolinyl]phenoxy}-N-(propan-2-yl) acetamide]
  Fungal infection: # Events: 0
  Fungal infection: Affected/At Risk (%): 0/21 (0%)
  Gamma-glutamyltransferase increased: # Events: 0
  Gamma-glutamyltransferase increased: Affected/At Risk (%): 0/21 (0%)
  Gastric ulcer: # Events: 0
  Gastric ulcer: Affected/At Risk (%): 0/21 (0%)
  Gastrooesophageal reflux disease: # Events: 2
  Gastrooesophageal reflux disease: Affected/At Risk (%): 2/21 (9.52%)
  Generalised oedema: # Events: 1
  Generalised oedema: Affected/At Risk (%): 1/21 (4.76%)
  Genital infection fungal: # Events: 0
  Genital infection fungal: Affected/At Risk (%): 0/21 (0%)
  Glaucoma: # Events: 0
  Glucose urine present: # Events: 3
  Glucose urine present: Affected/At Risk (%): 1/21 (4.76%)
  Grade ≥3 AE, No. (%): 14 (67)
  Grade ≥3 ALT/AST increased, No. (%): 0
  Grade ≥3 Anemia, No. (%): 0
  Grade ≥3 Dyspnea, No. (%): 4 (19)
  Grade ≥3 Hyperglycemia, No. (%): 2 (10)
  Grade ≥3 Hypoxia, No. (%): 2 (10)
  Grade ≥3 Lung infection or pneumonia, No. (%): 2 (10)
  Graft versus host disease in gastrointestinal tract: # Events: 0
  Graft versus host disease in gastrointestinal tract: Affected/At Risk (%): 0/21 (0%)
  Gynaecomastia: # Events: 0
  Gynaecomastia: Affected/At Risk (%): 0/21 (0%)
  Haematuria: # Events: 2
  Haematuria: Affected/At Risk (%): 1/21 (4.76%)
  Hair growth abnormal: # Events: 0
  Hair growth abnormal: Affected/At Risk (%): 0/21 (0%)
  Headache: # Events: 8
  Headache: Affected/At Risk (%): 6/21 (28.57%)
  Hodgkin's disease recurrent: # Events: 0
  Hodgkin's disease recurrent: Affected/At Risk (%): 0/21 (0%)
  Hordeolum: # Events: 1
  Hordeolum: Affected/At Risk (%): 1/21 (4.76%)
  Hot flush: # Events: 0
  Hot flush: Affected/At Risk (%): 0/21 (0%)
  Hyperglycemia: # Events: 8
  Hyperglycemia: Affected/At Risk (%): 3/21 (14.29%)
  Hyperhidrosis: # Events: 1
  Hyperhidrosis: Affected/At Risk (%): 1/21 (4.76%)
  Hyperkalaemia: # Events: 4
  Hyperkalaemia: Affected/At Risk (%): 3/21 (14.29%)
  Hypertension: # Events: 6
  Hypertension: Affected/At Risk (%): 4/21 (19.05%)
  Hyperthyroidism: # Events: 1
  Hyperthyroidism: Affected/At Risk (%): 1/21 (4.76%)
  Hypertriglyceridaemia: # Events: 0
  Hypertriglyceridaemia: Affected/At Risk (%): 0/21 (0%)
  Hyperuricaemia: # Events: 5
  Hyperuricaemia: Affected/At Risk (%): 3/21 (14.29%)
  Hypoaesthesia: # Events: 1
  Hypoaesthesia: Affected/At Risk (%): 1/21 (4.76%)
  Hypocalcaemia: # Events: 1
  Hypocalcaemia: Affected/At Risk (%): 1/21 (4.76%)
  Hypogonadism: # Events: 0
  Hypogonadism: Affected/At Risk (%): 0/21 (0%)
  Hypokalaemia: # Events: 0
  Hypokalaemia: Affected/At Risk (%): 0/21 (0%)
  Hypomagnesaemia: # Events: 1
  Hypomagnesaemia: Affected/At Risk (%): 1/21 (4.76%)
  Hyponatraemia: # Events: 2
  Hyponatraemia: Affected/At Risk (%): 2/21 (9.52%)
  Hypophosphataemia: # Events: 1
  Hypophosphataemia: Affected/At Risk (%): 1/21 (4.76%)
  Hypothermia: # Events: 0
  Hypothermia: Affected/At Risk (%): 0/21 (0%)
  Hypothyroidism: # Events: 4
  Hypothyroidism: Affected/At Risk (%): 3/21 (14.29%)
  Hypoxia: # Events: 3
  Hypoxia: Affected/At Risk (%): 3/21 (14.29%)
  Impaired healing: # Events: 0
  Impaired healing: Affected/At Risk (%): 0/21 (0%)
  Influenza like illness: # Events: 0
  Influenza like illness: Affected/At Risk (%): 0/21 (0%)
  Influenza: # Events: 2
  Influenza: Affected/At Risk (%): 2/21 (9.52%)
  Insomnia: # Events: 3
  Insomnia: Affected/At Risk (%): 3/21 (14.29%)
  Irritability: # Events: 0
  Irritability: Affected/At Risk (%): 0/21 (0%)
  Joint range of motion decreased: # Events: 1
  Joint range of motion decreased: Affected/At Risk (%): 1/21 (4.76%)
  Lacrimation increased: # Events: 0
  Lacrimation increased: Affected/At Risk (%): 0/21 (0%)
  Leukaemia recurrent: # Events: 0
  Leukaemia recurrent: Affected/At Risk (%): 0/21 (0%)
  Leukocytosis: # Events: 1
  Leukocytosis: Affected/At Risk (%): 1/21 (4.76%)
  Ligament sprain: # Events: 0
  Ligament sprain: Affected/At Risk (%): 0/21 (0%)
  Limb injury: # Events: 1
  Limb injury: Affected/At Risk (%): 1/21 (4.76%)
  Macular degeneration: # Events: 0
  Macular degeneration: Affected/At Risk (%): 0/21 (0%)
  Migraine: # Events: 0
  Migraine: Affected/At Risk (%): 0/21 (0%)
  Muscle spasms: # Events: 6
  Muscle spasms: Affected/At Risk (%): 6/21 (28.57%)
  Muscle spasticity: # Events: 1
  Muscle spasticity: Affected/At Risk (%): 1/21 (4.76%)
  Muscular weakness: # Events: 2
  Muscular weakness: Affected/At Risk (%): 2/21 (9.52%)
  Musculoskeletal chest pain: # Events: 1
  Musculoskeletal chest pain: Affected/At Risk (%): 1/21 (4.76%)
  Myalgia: # Events: 3
  Myalgia: Affected/At Risk (%): 3/21 (14.29%)
  Nail disorder: # Events: 0
  Nail disorder: Affected/At Risk (%): 0/21 (0%)
  Nasal congestion: # Events: 1
  Nasal congestion: Affected/At Risk (%): 1/21 (4.76%)
  Nausea: # Events: 12
  Nausea: Affected/At Risk (%): 9/21 (42.86%)
  Neck pain: # Events: 0
  Neck pain: Affected/At Risk (%): 0/21 (0%)
  Nephrotic syndrome: # Events: 0
  Nephrotic syndrome: Affected/At Risk (%): 0/21 (0%)
  Neuropathy peripheral: # Events: 2
  Neuropathy peripheral: Affected/At Risk (%): 1/21 (4.76%)
  Neutrophil count decreased: # Events: 1
  Neutrophil count decreased: Affected/At Risk (%): 1/21 (4.76%)
  Nocturia: # Events: 0
  Nocturia: Affected/At Risk (%): 0/21 (0%)
  Non-cardiac chest pain: # Events: 1
  Non-cardiac chest pain: Affected/At Risk (%): 1/21 (4.76%)
  Obesity: # Events: 0
  Obesity: Affected/At Risk (%): 0/21 (0%)
  Oedema peripheral: # Events: 6
  Oedema peripheral: Affected/At Risk (%): 6/21 (28.57%)
  Oedema: # Events: 0
  Oedema: Affected/At Risk (%): 0/21 (0%)
  Oesophageal ulcer: # Events: 0
  Oesophageal ulcer: Affected/At Risk (%): 0/21 (0%)
  Oral candidiasis: # Events: 0
  Oral candidiasis: Affected/At Risk (%): 0/21 (0%)
  Oropharyngeal pain: # Events: 1
  Oropharyngeal pain: Affected/At Risk (%): 1/21 (4.76%)
  Orthopnoea: # Events: 0
  Orthopnoea: Affected/At Risk (%): 0/21 (0%)
  Osteonecrosis: # Events: 0
  Osteonecrosis: Affected/At Risk (%): 0/21 (0%)
  Osteopenia: # Events: 0
  Osteopenia: Affected/At Risk (%): 0/21 (0%)
  Osteoporosis: # Events: 0
  Osteoporosis: Affected/At Risk (%): 0/21 (0%)
  Overdose: # Events: 0
  Overdose: Affected/At Risk (%): 0/21 (0%)
  Pain in extremity: # Events: 5
  Pain in extremity: Affected/At Risk (%): 4/21 (19.05%)
  Pain: # Events: 1
  Pain: Affected/At Risk (%): 1/21 (4.76%)
  Palpitations: # Events: 1
  Palpitations: Affected/At Risk (%): 1/21 (4.76%)
  Paraesthesia: # Events: 1
  Paraesthesia: Affected/At Risk (%): 1/21 (4.76%)
  Pericardial effusion: # Events: 0
  Pericardial effusion: Affected/At Risk (%): 0/21 (0%)
  Peripheral coldness: # Events: 0
  Peripheral coldness: Affected/At Risk (%): 0/21 (0%)
  Peripheral sensory neuropathy: # Events: 0
  Peripheral sensory neuropathy: Affected/At Risk (%): 0/21 (0%)
  Phlebitis: # Events: 0
  Phlebitis: Affected/At Risk (%): 0/21 (0%)
  Photophobia: # Events: 2
  Photophobia: Affected/At Risk (%): 2/21 (9.52%)
  Platelet count decreased: # Events: 0
  Platelet count decreased: Affected/At Risk (%): 0/21 (0%)
  Pleural effusion: # Events: 1
